# Reference: patent US11898168B2, “Methods of promoting esophageal differentiation of pluripotent stem cells” (The Trustees of Columbia University in the City of New York, priority 2017, dated 2024)
# B1: Noggin: BMP inhibitor (R&D Systems) (protein, UniProt Q13253 28-232, looked up)
# Noggin: QHYLHIRPAPSDNLPLVDLIEHPDPIFDPKEKDLNETLLRSLLGGHYDPGFMATSPPEDRPGGGGGAAGGAEDLAELDQLLRQRPSGAMPSEIKGLEFSEGLAQGKKQRLSKKLRRKLQMWLWSQTFCPVLYAWNDLGSRFWPRYVKVGSCFSKRSCSVPEGMVCKPSKSVHLTVLRWRCQRRGGQRCGWIPIQYPIISECKCSC
# B2: DKK1: WNT inhibitor (protein, UniProt O94907 32-266, looked up)
# Dickkopf-related protein 1: TLNSVLNSNAIKNLPPPLGGAAGHPGSAVSAAPGILYPGGNKYQTIDNYQPYPCAEDEECGTDEYCASPTRGGDAGVQICLACRKRRKRCMRHAMCCPGNYCKNGICVSSDQNHFRGEIEETITESFGNDHSTLDGYSRRTTLSSKMYHTKGQEGSVCLRSSDCASGLCCARHFWSKICKPVLKEGQVCTKHRRKGSHGLEIFQRCYCGEGLSCRIQKDHHQASNSSRLHTCQRH
# B3: BMP4: BMP signaling activator, growth factor (R&D Systems) (protein, UniProt P12644 293-408, looked up)
# Bone morphogenetic protein 4: SPKHHSQRARKKNKNCRRHSLYVDFSDVGWNDWIVAPPGYQAFYCHGDCPFPLADHLNSTNHAIVQTLVNSVNSSIPKACCVPTELSAISMLYLDEYDKVVLKNYQEMVVEGCGCR
# Tests used:
# Type in all cases: cell-based, human
# [1] = test system: hESC RUES2-derived AFE cells; assay: Specification of anterior foregut endoderm (AFE) towards esophageal progenitor cells, day 6-16, gene expression by qPCR/immunostaining
# Description: hPSCs were differentiated into endodermal and anterior foregut using a previously described protocol (Huang et al., 2015; Huang et al., 2014). Serum-Free Differentiation (SFD) medium was prepared as follows: 750 ml of reconstituted IMDM (ThermoFisher Scientific), 250 ml of F-12 (Corning), 7.5 ml of BSA (ThermoFisher Scientific), 10 ml of Glutamax (ThermoFisher Scientific), 5 ml of N2 (ThermoFisher Scientific), 10 ml of B27 (ThermoFisher Scientific) and 10 ml of Penicillin/Streptomycin (ThermoFisher Scientific), and adding L-Ascorbic acid (Sigma-Aldrich) and MTG (Sigma-Aldrich) on the day of use to obtain a final concentration of 50 μg/ml and 0.04 μl/ml, respectively. To generate endoderm, hPSCs were detached by Accutase/EDTA and cultured in SFD medium plus 10 μM Rock inhibitor 100 ng/ml Activin A, Y-27632 (Tocris), 2.5 ng FGF2 and 0.5 ng/ml BMP4 (R&D Systems) in 6-well Ultra-Low-Attachment plates (Corning) for 72 hours (day 1-4). At day 4, anterior foregut progenitor cells were further induced by culturing endoderm in SFD medium plus 10 μM SB431542 (Tocris) and 100 ng/ml Noggin (R&D Systems) for 24 hours (day 4-5) and SFD medium plus 10 μM SB431542 and 1 μM IWP-2 (Tocris) for another 24 hours (day 5-6). Cells were maintained at 5% O2/95% N2/5% CO2 from day 1-6.
# To induce esophageal progenitor cell differentiation, anterior foregut progenitor cells were cultured from day 6 to day 16 in SFD medium plus 10 μM SB431542 and 50 ng/ml Noggin. From day 16 to day 24, cells were maintained at SFD medium. A previously described protocol was followed to generate lung progenitor cells from AFE (Huang et al., 2015; Huang et al., 2014) in which AFE cells were cultured in 3 μM CHIR99021 (Tocris), 10 ng/ml human FGF10 (R&D Systems), 10 ng/ml human KGF (R&D Systems), 10 ng/ml human BMP4 and 50 nM retinoid acid (RA, Sigma). Cells were cultured at 5% O2/95% N2/5% CO2 at day 6-7 and maintained at 95% air/5% CO2 from day 7 onwards.
# For immunofluorescence staining, cells were fixed in 4% paraformaldehyde (PFA) for 15 minutes at room temperature and washed with 1×PBS for three times. Cells were permeabilized with 0.3% Triton X-100 in 1×PBS for 15 minutes. Then cells were incubated in blocking solution (0.3% Triton X-100 plus 2% donkey serum in 1×PBS) for 1 hour. Primary antibodies were added into blocking solution and incubated at 4° C. overnight. The next day, cells were washed with 1×PBS for three times. Secondary antibodies conjugated to Alexa Fluor 488, Cy3, or Alexa Fluor 647 (Jackson Immunoresearch) were incubated for 1 hour. Images were taken using Leica DMI6000 B (Leica Microsystems) or DMi8 (Leica Microsystems) and a Zeiss LSM700 confocal laser scanning microscope. Bright field images were acquired using a Nikon Labophot 2 microscope equipped with a Nikon Digital Sight DS-Ri1 charge-coupled device camera. The thickness and areas composed of KRT13^+ cells were calculated by ImageJ (National Institutes of Health). For X-gal staining, tissues were fixed in 4% paraformaldehyde for 30 minutes and incubated in X-gal solution overnight at 37° C. as previously described (Que et al., 2006).
# (§1) Cells were lysed with TRIzol (Invitrogen) and RNA was purified using the RNeasy Mini Kit (QIAGEN). RNA was reversely transcribed to cDNA by the SuperScript III First-Strand SuperMix (Invitrogen). cDNA was quantified by real-time PCR using the iQ SYBR Green Supermix (Bio-Rad) and StepOnePlus™ Real-Time PCR System (Applied Biosystems). The transcript level of each gene was normalized to the ß-actin control using 2(−ΔΔCT) method. Relative gene expression was calculated and reported as fold change compared to the indicated samples using ß-actin normalized transcript level. All qRT-PCR experiments were performed at least triplicate.
# [2] = test system: NOTCH signaling; assay: Expression of NOTCH downstream targets in iPSC-derived EPCs; conditions: 10 μM
# Description: as §1
# (§2) It was then tested whether NOTCH signaling is involved in the differentiation of hPSC-derived EPCs. The iPSC-derived EPCs were treated with 10 μM γ-secretase inhibitor DAPT to block NOTCH signaling. As expected, treatment with DAPT led to downregulation of HESS, HEY1 and HEY2, the downstream targets of NOTCH signaling (Kopan and Ilagan, 2009).
# [3] = test system: hPSC-derived EPCs; assay: Squamous differentiation of purified hPSC-derived EPCs (KRT13, INV, KRT14 levels)
# Description: To perform cell surface marker staining, cells were disassociated with 0.05% Trypsin-EDTA (ThermoFisher Scientific) and stained with fluorophore conjugated antibodies in FACS buffer (1×PBS, 2% FBS, 0.2 mM EDTA) for 30 min with live/dead staining dye (LIVE/DEAD™ Fixable Violet Dead Cell Stain Kit, ThermoFisher Scientific) to exclude dead cells. Intracellular staining cells were performed according to the manufacturer's instructions in eBioscience™ Foxp3/Transcription Factor Staining Buffer Set (ThermoFisher Scientific). Fixation and permeabilization was performed at room temperature for 1 hour followed by incubation of primary antibody for 1 hour. Cells were washed with 1×PBS and fluorophore-conjugated secondary antibodies were incubated for 1 hour. Stained cells were analyzed BD FACSCanto (BD Biosciences) data were analyzed with FlowJo software (Ashland, Oregon). Sorted EPCAM^+ ITGß4^+ cells were maintained in the medium containing 5% FBS, 20 ng/ml EGF, 20 ng/ml FGF2 and 10 μM Rock inhibitor Y27632.
# as §1
# The inventors have previously shown that BMP signaling activation promotes terminal differentiation of esophageal progenitors in the developing and adult esophagus (Jiang et al., 2015; Rodriguez et al., 2010). It was asked whether purified hPSCs-derived EPCs (ESC and iPSC-derived) respond to BMP activation in a similar manner.
# as §2
# [4] = 10 μM, iPSC-derived EPCs, vs vehicle, FIG. 6D
# [5] = WNT activation in the presence of Noggin and SB431542, FIG. 1F
# [6] = BMP4 treatment vs vehicle, ESC and iPSC-derived EPCs, FIGS. 6A-B
molecule,measurement,setting,value
C[C@H](NC(=O)Cc1cc(F)cc(F)c1)C(=O)N[C@H](C(=O)OC(C)(C)C)c1ccccc1 [DAPT],initial EPC commitment from the AFE,"[1]; DAPT applied during PSC differentiation from AFE to EPC, FIG. 6C",did not affect
same,HESS expression (downstream target of NOTCH signaling),[2],downregulation
same,HEY1 expression (downstream target of NOTCH signaling),[2],downregulation
same,HEY2 expression (downstream target of NOTCH signaling),[2],downregulation
same,expression of INV at the transcription and protein levels,[3]; [4],reduced expression
same,expression of KRT13 at the transcription and protein levels,[3]; [4],reduced expression
Cc1c[nH]c(-c2cnc(NCCNc3ccc(C#N)cn3)nc2-c2ccc(Cl)cc2Cl)n1 [GSK inhibitor],levels of the general foregut marker SOX2,[1]; [5],remained unchanged
same,levels of the posterior foregut marker HNF6,[1]; [5],increased
same,levels of the posterior foregut marker PROX1,[1]; [5],increased
same,p63 expression,[1]; [5],reduced p63 expression in a dose-dependent manner
Cc1ccc2nc(NC(=O)CSc3nc4c(c(=O)n3-c3ccccc3)SCC4)sc2c1 [IWP2],esophageal specification,"[1]; Noggin plus SB431542 in combination with 0.5, 1 or 2 μM IWP2, day 6 to day 16, gene expression at day 16, FIG. 1I",does not affect
same,p63 expression,"[1]; added to culture treated with Noggin and SB431542 at day 6-16, FIG. 1I",did not further promote
B1,AFE differentiation into p63+ NKX2.1- EPCs,"[1]; Noggin treatment alone at day 6-16, FIG. 1E",insufficient
B2,p63 expression,"[1]; WNT inhibitor alone, hPSCs, FIG. 1E",insufficient
B3,differentiation of hPSC-derived EPCs,[3]; BMP4 treatment,promotes
same,levels of Involucrin (INV),[3]; [6],significantly increase
same,levels of KRT13,[3]; [6],significantly increase
same,levels of KRT14,"[3]; BMP4 treatment, FIG. 6B",increased
